Experimental findings from ChEMBL document CHEMBL4270501, “Indole-fused azepines and analogues as anticancer lead molecules: Privileged findings and future directions” (Eur J Med Chem, 2017) are described below.

The structures appear in SMILES notation.

For this experiment, the system named is MCF7. Briefly: Growth inhibition of human MCF7 cells by MTT assay. It counts as functional, cell-based. On the technique in general: Formazan colour is commonly taken as a measure of viable cells.

In turn, `COc1ccc2c3c([nH]c2c1)-c1ccccc1NC(=O)C3` yielded an IC50 of 600 nM.
`O=C1Cc2c([nH]c3ccccc23)-c2ccccc2N1` [PAULLONE] had an IC50 of 1200 nM.

As a reminder, the IC50 is the concentration needed to halve the response being measured.
